Measurements published in patent US20100150887A1, “Tissue Progenitor Cells That Overexpress ERG” (priority 2007, published 2010).

System: HERG overexpressing cells
Assay: Dofetilide responsiveness of action potentials
Settings: action potential after 1, 2 or 3 minute treatment (FIGS. 3A-D)
Procedure: AP is shown with-out DOF (FIG. 3A), or after 1 minute (FIG. 3B), 2 minute (FIG. 3C), or 3 minute treatments (FIG. 3D).

Compound: CN(CCOc1ccc(NS(C)(=O)=O)cc1)CCc1ccc(NS(C)(=O)=O)cc1 [dofetilide, Dofetilide]
- sensitivity to the effects of dofetilide: sensitive
